pEC50: −log10 of the molar value.
Experiments:
[1] = system: HIV-1 LAI; assay: microbe, parasite or virus in culture; details: for Combination Indices at % HIV Inhibition (Confidence Interval) 50%: 50% HIV inhibition; for Combination Indices at % HIV Inhibition (Confidence Interval) 50% / Combination Indices at % HIV Inhibition (Confidence Interval) 75% / Combination Indices at % HIV Inhibition (Confidence Interval) 90%: 95% CI in parenthesis; for Combination Indices at % HIV Inhibition (Confidence Interval) 75%: 75% HIV inhibition; for Combination Indices at % HIV Inhibition (Confidence Interval) 90%: 90% HIV inhibition
[2] = system: uninfected cells; assay: Cytotoxicity assay of drug combinations, uninfected cells, XTT assay; type: cell-based; details: combination with Compound 1 at the highest concentrations tested, 6 days
Description: Drug Susceptibility and Cytotoxicity Assays. […] Each drug ratio consisted of an array of 3-fold serial dilutions, and was performed in quadruplicate. The plates were incubated at 37° C./5% CO2. […] On day-five post-infection, 20 μl from each well was harvested and quantitated by a reverse transcriptase (RT) assay, or in samples involving non-nucleoside RT inhibitors, an MTS assay. The PM-1 cells infected with HIV-1 Bal and used for studying the combinations with CCR5 inhibitors were incubated for six days. On day-six post-infection, 20 μl from each well was harvested, 20- and 50-fold diluted and quantitated by p24 assay. Cytotoxicity assays were performed using uninfected cells, exposed to the same drug combinations, and incubated for six days. Cell viability was determined by an XTT assay. The CC50 values were calculated by using the exponential form of the median effect equation as mentioned below for calculation of EC50.

[3] = combination with Compound 1, EC50 ratio 1:1
[4] = combination with Compound 1, EC50 ratio 1:2.5
[5] = combination with Compound 1, EC50 ratio 2.5:1

## enfuvirtide
[1]; combination with Compound 1, EC50 ratio 1:1 (Compound 1:comparator)
  Combination Indices at % HIV Inhibition (Confidence Interval) 50%: 0.53 (0.46, 0.59)
[1]; [3]
  Combination Indices at % HIV Inhibition (Confidence Interval) 75%: 0.51 (0.42, 0.59)
  Combination Indices at % HIV Inhibition (Confidence Interval) 90%: 0.57 (0.42, 0.72)
[1]; [4]
  Combination Indices at % HIV Inhibition (Confidence Interval) 50%: 0.27 (0.21, 0.32)
  Combination Indices at % HIV Inhibition (Confidence Interval) 75%: 0.32 (0.22, 0.42)
  Combination Indices at % HIV Inhibition (Confidence Interval) 90%: 0.43 (0.22, 0.64)
[1]; [5]
  Combination Indices at % HIV Inhibition (Confidence Interval) 50%: 0.41 (0.30, 0.51)
  Combination Indices at % HIV Inhibition (Confidence Interval) 75%: 0.57 (0.37, 0.78)
  Combination Indices at % HIV Inhibition (Confidence Interval) 90%: 0.90 (0.36, 1.44)
[1]; single drug, MT-2 cells, HIV-1 LAI, MOI 0.005, 5 days, RT assay
  pEC50: 8.52
[2]
  cytotoxicity of the drug combination: No significant cytotoxicity

— patent US20050215543A1, “Methods of treating HIV infection” (priority 2004, published 2005)
